For test [1], the target named is T1, recombinant HIV-1 protease (wild type) (Human immunodeficiency virus type 1 group M subtype B, UniProt P04585).
T1 construct: 8 μL of recombinant HIV-1 protease (wild type); purchased AnaSpec Inc
Kind of test: FRET assay of HIV-1 protease inhibition. Conditions: for inhibition at 1000 µg/mL / HIV-1 PR Inhibition (%) ± SD at 1.0 (mg/mL): 1.0 mg/mL; for inhibition at 1000 µg/mL / HIV-1 PR Inhibition (%) ± SD at 1.0 (mg/mL) / IC50 ± RSD% HIV-1 PR: n = 3; for inhibition at 1000 µg/mL: read-out: HIV-1 PR Inhibition (%) ± SD at 1.0 (mg/mL). The format is biochemical. The protocol:
Enzyme activities of HIV-1, Cathepsin L, and renin proteases were determined by a FRET assay, following the manufacturer’s protocol. Briefly, the HIV-1 PR activity was assayed using 384-well microplates with a well volume of 120 μL (Corning Incorporated, Corning, NY, USA). […] Reactions were then initiated by adding 10 μL of the HIV protease substrate (50X dilution with assay buffer). Fluorescence was measured using a EX/Em = 490/520 nm filter module on a Synergy II microplate reader. […] Briefly, 2 μL test compound solutions (0.01~1.0 mg/mL) and 8 µL of human recombinant Cathepsin L protease (200× dilution with DTT-containing assay buffer, final concentration: 0.5 µg/mL) were added in the microplate wells. The microplate was pre-incubated at room temperature for 10 min. The enzymatic reaction was subsequently initiated by adding 10 μL of freshly diluted Cathepsin L substrate solution (100× dilution with assay buffer, final concentration: 0.01 mM) into each well. The microplate was gently shaken for 30 s before being incubated at 37 °C for 30 min. Fluorescence was measured at an emission of 520 nm and excitation of 490 nm. A Cathepsin L inhibitor, (100× dilution with assay buffer, final concentration: 1 µM) was used as a positive control. IC50 values of tested compounds were calculated by Microsoft Office Excel software using three different concentrations.

The target of test [2] is T2, human recombinant Cathepsin L protease (Homo sapiens, UniProt P07711).
T2 construct: purchased AnaSpec Inc. SensoLyte 520 Cathepsin L Protease Assay Kit, Lot#: AS72218-1010
The experiment in a line: FRET assay of Cathepsin L protease inhibition (SensoLyte 520 kit). Format: biochemical. Conditions: for inhibition at 10 µg/mL: read-out: CatL PR Inhibition (%) ± SD at 0.01 (mg/mL). The protocol:
Enzyme activities of HIV-1, Cathepsin L, and renin proteases were determined by a FRET assay, following the manufacturer’s protocol. Briefly, the HIV-1 PR activity was assayed using 384-well microplates with a well volume of 120 μL (Corning Incorporated, Corning, NY, USA). Then, 8 μL of recombinant HIV-1 protease (wild type, NCBI accessiob: NC-001802, final concentration: 0.01 mg/mL (80 ng/well), AnaSpec Inc., Fremont, San Jose, CA, USA) was mixed with 2 μL of the test compounds (0.01~1.0 mg/mL). Reactions were then initiated by adding 10 μL of the HIV protease substrate (50X dilution with assay buffer). Fluorescence was measured using a EX/Em = 490/520 nm filter module on a Synergy II microplate reader. To evaluate the inhibitory activity of the test compounds towards Cathepsin L protease, fluorimetric SensoLyte^TM 520 Cathepsin L Protease Assay Kit (Lot#: AS72218-1010, AnaSpec Inc. San Jose, CA, USA) was used. Briefly, 2 μL test compound solutions (0.01~1.0 mg/mL) and 8 µL of human recombinant Cathepsin L protease (200× dilution with DTT-containing assay buffer, final concentration: 0.5 µg/mL) were added in the microplate wells. The microplate was pre-incubated at room temperature for 10 min. The enzymatic reaction was subsequently initiated by adding 10 μL of freshly diluted Cathepsin L substrate solution (100× dilution with assay buffer, final concentration: 0.01 mM) into each well. The microplate was gently shaken for 30 s before being incubated at 37 °C for 30 min. Fluorescence was measured at an emission of 520 nm and excitation of 490 nm. A Cathepsin L inhibitor, (100× dilution with assay buffer, final concentration: 1 µM) was used as a positive control. IC50 values of tested compounds were calculated by Microsoft Office Excel software using three different concentrations.

Read-outs that look alike come from different tables or passages of the source.

T2 sequence (P07711 114-333): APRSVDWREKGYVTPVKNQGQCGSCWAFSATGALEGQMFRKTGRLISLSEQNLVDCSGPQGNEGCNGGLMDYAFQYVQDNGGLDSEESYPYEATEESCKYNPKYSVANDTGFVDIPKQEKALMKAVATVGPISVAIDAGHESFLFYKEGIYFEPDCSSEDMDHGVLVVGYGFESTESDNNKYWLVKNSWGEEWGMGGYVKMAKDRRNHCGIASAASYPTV

As to `C[N+](C)(C)CC(=O)O` [Compound 1, Betaine], the inhibition at 1000 µg/mL in test [1] came to 8.95 ± 4.61%. Moreover, the inhibition at 10 µg/mL in test [2] (0.01 mg/mL, n = 3) is -15.5 ± 5.76%.
For `O=C(O)[C@]1(O)C[C@@H](O)[C@@H](O)[C@H](O)C1` [Compound 2, D-(-)-Quinic acid], in test [1], the inhibition at 1000 µg/mL is -20.1 ± 2.61%. Further, in test [2], the “inhibition of CatL PR (in words)” value is recorded as “no inhibition” and the inhibition at 10 µg/mL was -0.32 ± 8.61%.
Take `COc1ccc(C(C)=O)c(O)c1` [Compound 3, Paeonol]: in test [1], the inhibition at 1000 µg/mL is -12.6 ± 0.26%. Further, the inhibition at 10 µg/mL in test [2] (0.01 mg/mL, n = 3) is -15 ± 0.56%.
Turning to `O=C(O)c1ccc(O)c(O)c1` [Compound 4, Protocatechuic acid], in test [1], the inhibition at 1000 µg/mL stood at 47.9 ± 1.82%. Further, the inhibition at 10 µg/mL in test [2] stood at 42.1 ± 2.25%.
Consider `O=C(/C=C/c1ccc(O)c(O)c1)O[C@@H]1C[C@](O)(C(=O)O)C[C@@H](O)[C@H]1O` [Compound 5, Chlorogenic acid], for which the inhibition at 10 µg/mL in test [2] (0.01 mg/mL, n = 3) stood at 40.8 ± 2.54%.
On to `O=c1ccc2ccc(O)cc2o1` [Compound 6, 7-Hydroxycoumarine], for which the inhibition at 1000 µg/mL in test [1] came to 28.9 ± 4.41%. For the same compound, in test [2] (0.01 mg/mL, n = 3), the inhibition at 10 µg/mL is 22.6 ± 0.53%.
One may read the IC50 as the concentration that inhibits the measured activity by half. For `O=C(O)/C=C/c1ccc(O)c(O)c1` [Compound 7, Caffeic acid], in test [1], the IC50 is 2.66 mM, the “HIV-1 PR Inhibition (%) ± SD at 1.0 (mg/mL)” value (“HIV-1 PR Inhibition (%) ± SD” for short) came to 65.9 ± 0.00%, the inhibition at 1000 µg/mL is > 50% and the “IC50 ± RSD% HIV-1 PR” value amounted to 0.48 ± 0.124%. Besides, the inhibition at 10 µg/mL in test [2] (0.01 mg/mL, n = 3) stood at 32.1 ± 1.68%.
In the case of `COc1cc2ccc(=O)oc2c(O)c1O` [Compound 8, Fraxetin], in test [1], the inhibition at 1000 µg/mL was 24.1 ± 6.7%. In test [2] (0.01 mg/mL, n = 3), the inhibition at 10 µg/mL is 15 ± 5.25%.
For the compound `C[C@@H]1O[C@@H](O[C@H]2C(=O)c3c(O)cc(O)cc3O[C@@H]2c2ccc(O)c(O)c2)[C@H](O)[C@H](O)[C@H]1O` [Compound 9, Astilbin], in test [1], the “HIV-1 PR Inhibition (%) ± SD” value is on record as 68.4 ± 5.45%, the inhibition at 1000 µg/mL is > 50% and the “IC50 ± RSD% HIV-1 PR” value was found to be 0.54 ± 4.34%. In test [2] (0.01 mg/mL, n = 3), the inhibition at 10 µg/mL is -24.7 ± 8.14%.
For `COc1cc2ccc(=O)oc2c(OC)c1O` [Compound 10, Isofraxidin], the inhibition at 1000 µg/mL in test [1] was -2.09 ± 8.57%. Besides, the inhibition at 10 µg/mL in test [2] (0.01 mg/mL, n = 3) is 27 ± 2.37%.
Consider `O=C(C=Cc1ccc(O)c(O)c1)OC1CC(O)(C(=O)O)CC(O)C1OC(=O)C=Cc1ccc(O)c(O)c1` (stereo not shown) [Compound 11, 3,4-Dicaffeoylquinic acid], for which, in test [1], the IC50 is 0.252 mM, the “HIV-1 PR Inhibition (%) ± SD” value was found to be 86.1 ± 3.92% and the “IC50 ± RSD% HIV-1 PR” value turned out to be 0.13 ± 2.84%. Besides, the “HIV-1 PR Inhibition (%) ± SD” value in test [1] (listed as 3,4-dicaffeoylquinic acid) is “more than 50%”. For the same compound, the “inhibition of CatL PR (in words)” value in test [2] is reported as “no inhibition”. Further, the inhibition at 10 µg/mL in test [2] (0.01 mg/mL, n = 3) is -31.3 ± 6.24%.
`O=C(/C=C/c1ccc(O)c(O)c1)O[C@H](Cc1ccc(O)c(O)c1)C(=O)O` [Compound 12, Rosmarinic acid]: the inhibition at 10 µg/mL in test [2] (0.01 mg/mL, n = 3) is 19.2 ± 1.7%.
Turning to `COc1cc(O)cc2c1C(=O)C[C@@H](c1ccccc1)O2` [Compound 13, Alpinetin], in test [1], the “HIV-1 PR Inhibition (%) ± SD” value stood at 62.3 ± 0.96%, the inhibition at 1000 µg/mL is > 50% and the “IC50 ± RSD% HIV-1 PR” value is recorded as 0.62 ± 3.44%. Further, in test [2] (0.01 mg/mL, n = 3), the inhibition at 10 µg/mL was found to be 11.9 ± 8.99%.
For the compound `C[C@@H]1CC[C@H]2[C@@H](C)C(=O)O[C@@H]3O[C@@]4(C)CC[C@@H]1[C@]32OO4` [Compound 14, Artemisinin], in test [1], the “HIV-1 PR Inhibition (%) ± SD” value amounted to 50.8 ± 0.58%, the inhibition at 1000 µg/mL is > 50% and the “IC50 ± RSD% HIV-1 PR” value was determined as 0.95 ± 2.77%. In addition, the inhibition at 10 µg/mL in test [2] (0.01 mg/mL, n = 3) was -1.1 ± 0.52%.

The values above are taken from paper PMC9457736, “Dual Inhibition of HIV-1 and Cathepsin L Proteases by Sarcandra glabra” (Molecules, 2022).
